In patent US11149022B2, “Antagonists of the muscarinic acetylcholine receptor M4” (Vanderbilt University, priority 2017, dated 2021) one finds remaining activity and IC50 data, which are given here for 21 compounds.

Molecules are shown by their SMILES. pIC50: −log10 of the molar value.

The target of this assay is T1, Human M4 (Homo sapiens, UniProt P08173).
T1 construct: expressed in transfected cells; host or cells: CHO-K1 (ATCC), stably co-expressing chimeric G protein Gqi5
T1 sequence (P08173 1-479): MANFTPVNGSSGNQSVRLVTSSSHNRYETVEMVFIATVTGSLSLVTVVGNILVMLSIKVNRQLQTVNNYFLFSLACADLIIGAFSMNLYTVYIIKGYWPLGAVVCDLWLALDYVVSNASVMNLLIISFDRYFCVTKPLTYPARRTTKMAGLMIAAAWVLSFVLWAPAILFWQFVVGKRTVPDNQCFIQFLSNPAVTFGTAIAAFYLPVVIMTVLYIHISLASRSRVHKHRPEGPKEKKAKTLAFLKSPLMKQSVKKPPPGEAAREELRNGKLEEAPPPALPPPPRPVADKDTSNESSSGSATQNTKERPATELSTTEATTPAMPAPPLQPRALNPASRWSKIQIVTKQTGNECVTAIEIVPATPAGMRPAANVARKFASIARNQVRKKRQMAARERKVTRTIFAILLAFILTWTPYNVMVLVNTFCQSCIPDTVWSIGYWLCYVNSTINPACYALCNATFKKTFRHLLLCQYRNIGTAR
Nature of the assay: mAChR M4 cell-based functional assay (calcium flux, antagonist mode). Conditions: for remaining activity at 30 µM: % ACh maximum at 30 μM, read-out: Emin; for pIC50: M4/Gqi5/CHO-K1 cells, concentration-dependent decrease of the EC80 acetylcholine response. How it is done:
Human or rat M4 cDNA, along with the chimeric G protein Gqi5, were transfected into Chinese hamster ovary (CHO-K1) cells purchased from the American Type Culture Collection using Lipofectamine2000. M4/Gqi5/CHO cells were grown in Ham's F-12 medium containing 10% heat-inactivated fetal bovine serum (FBS), 20 mM HEPES, 500 μg/mL G418 sulfate, and 200 μg/mL Hygromycin B.
For high throughput measurement of agonist-evoked increases in intracellular calcium, CHO-K1 cells stably expressing muscarinic receptors were plated in growth medium lacking G418 and hygromycin at 15,000 cells/20 μL/well in Greiner 384-well black-walled, tissue culture (TC)-treated, clear-bottom plates (VWR). Cells were incubated overnight at 37° C. and 5% CO2. The next day, cells were washed using an ELX 405 (BioTek) with assay buffer; the final volume was then aspirated to 20 μL, Next, 20 μL of a 2.3 μM stock of Fluo-4/acetoxymethyl ester (Invitrogen, Carlsbad, Calif.), prepared as a 2.3 μM stock in DMSO, mixed in a 1:1 ratio with 10% (w/v) Pluronic F-127 and diluted in assay buffer, was added to the wells and the cell plates were incubated for 50 min at 37° C. and 5% CO2. Dye was removed by washing with the ELX 405 and the final volume was aspirated to […]. Compound master plates were formatted in a 10 point concentration-response curve (CRC) format (1:3 dilutions) in 100% DMSO with a starting concentration of 10 or 1 mM using a BRAVO liquid handler (Agilent). Test compound CRCs were then transferred to daughter plates (240 nL) using the Echo acoustic plate reformatter (Labcyte, Sunnyvale, Calif.) and then diluted into assay buffer (40 μL) to a 2× stock using a Thermo Fisher Combi (Thermo Fisher Scientific, Waltham, Mass.).
Calcium flux was measured using the Functional Drug Screening System (FDSS) 6000 or 7000 (Hamamatsu Corporation, Tokyo, Japan) as an increase in the fluorescent static ratio. Compounds were applied to cells (20 μL, 2×) using the automated system of the FDSS at 2 seconds into the protocol and the data were collected at 1 Hz. At 143 s, 10 μL of an EC20 concentration of the muscarinic receptor agonist acetylcholine was added (5×), followed by the addition of 12 μL of an EC80 concentration of acetylcholine at the 268 s time point (5×). Agonist activity was analyzed as a concentration-dependent increase in calcium mobilization upon compound addition. Positive allosteric modulator activity was analyzed as a concentration-dependent increase in the EC20 acetylcholine response. Antagonist activity was analyzed as a concentration-dependent decrease in the EC80 acetylcholine response; for the purposes of the tables herein, an […] (inhibitory concentration 50) was calculated as a concentration-dependent decrease of the response elicited by an EC80 concentration of acetylcholine. Concentration-response curves were generated using a four-parameter logistical equation in XLFit curve fitting software (IDBS, Bridgewater, N.J.) for Excel (Microsoft, Redmond, Wash.) or Prism (GraphPad Software, Inc., San Diego, Calif.) or the Dotmatics software platform (Dotmatics, Bishop's Stortford, UK).
Compounds were synthesized as described above. Activity (IC50 and Emin) was determined in the mAChR M4 cell-based functional assay as described above and the data are shown in Table 4.

What is called pIC50 is the IC50 on a negative log10 scale, so that one unit is a factor of ten.

With `Fc1ccc(Cl)c(-c2ccc(NCC3CC4(CCN(CC5CCCCC5)CC4)C3)nn2)c1` [Compound 42, 6-(2-chloro-5-fluoro-phenyl)-N-[[7-(cyclohexylmethyl)-7-azaspiro[3.5]nonan-2-yl]methyl]pyridazin-3-amine], the remaining activity at 30 µM came to 6.27% and the pIC50 is 5.50.

Take `Fc1ccc(Cl)c(-c2ccc(NCC3CC4(CCN(Cc5ccccc5)CC4)C3)nn2)c1` [Compound 45, N-[(7-benzyl-7-azaspiro[3.5]nonan-2-yl)methyl]-6-(2-chloro-5-fluoro-phenyl)pyridazin-3-amine]: the remaining activity at 30 µM came out at 5.72% and the pIC50 is 5.87.

For the compound `CC(CN1CCC2(CC1)CC(Oc1ccc(-c3cc(F)ccc3Cl)nn1)C2)C(C)(C)C` (stereo not drawn) [Compound 17, 2-[6-(2-chloro-5-fluoro-phenyl)pyridazin-3-yl]oxy-7-(2,3,3-trimethylbutyl)-7-azaspiro[3.5]nonane], the remaining activity at 30 µM turned out to be 2.73% and the pIC50 is 6.23.

Turning to `Cc1nn(C)cc1-c1ccc(NC2CC3(CCN(CC4CCSCC4)CC3)C2)nn1` [Compound 6], the remaining activity at 30 µM is 4.58% and the pIC50 is 6.48.

Take `Cc1nn(C)cc1-c1ccc(NCC2CC3(CCN(CC4CC5C=CC4C5)CC3)C2)nn1` (stereo not drawn) [Compound 59, N-[[7-(5-bicyclo[2.2.1]hept-2-enylmethyl)-7-azaspiro[3.5]nonan-2-yl]methyl]-6-(1,3-dimethylpyrazol-4-yl)pyridazin-3-amine]: the remaining activity at 30 µM was 5.41% and the pIC50 is 6.74.

For the compound `Cc1cccnc1CN1CCC2(CC1)CC(Nc1ccc(-c3cn(C)nc3C)nn1)C2` [Compound 7, N-[6-(1,3-dimethyipyrazol-4-yl)pyridazin-3-yl]-7-[(3-methyl-2-pyridyl)methyl]-7-azaspiro[3.5]nonan-2-amine], the remaining activity at 30 µM came to 9.14% and the pIC50 is 5.76.

On to `Cc1nn(C)cc1-c1ccc(OC2CC3(CCN(Cc4ccccc4)CC3)C2)nn1` [Compound 30, 7-benzyl-2-[6-(1,3-dimethylpyrazol-4-yl)pyridazin-3-yl]oxy-7-azaspiro[3.5]nonane], for which the remaining activity at 30 µM came to 5.31% and the pIC50 was 5.79.

Consider `Cc1nn(C)cc1-c1ccc(NCC2CC3(CCN(CC4CCCCC4)CC3)C2)nn1` [Compound 50, N-[[7-(cyclohexylmethyl)-7-azaspiro[3.5]nonan-2-yl]methyl]-6-(1,3-dimethylpyrazol-4-yl)pyridazin-3-amine], for which the remaining activity at 30 µM came out at 6.19% and the pIC50 is 5.94.

Regarding `Cc1nn(C)cc1-c1ccc(NC2CC3(CCN(CC(C)C(C)(C)C)CC3)C2)nn1` (stereo not drawn) [Compound 4, N-[6-(1,3-dimethylpyrazol-4-yl)pyridazin-3-yl]-7-(2,3,3-trjmethylbutyl)-7-azaspiro[3.5]nonan-2-amine], the remaining activity at 30 µM stood at 4.05% and the pIC50 was 5.99.

For `Fc1ccc(Cl)c(-c2ccc(OCC3CC4(CCN(Cc5ccccn5)CC4)C3)nn2)c1` [Compound 66, 2-[[6-(2-chloro-5-fluoro-phenyl)pyridazin-3-yl]oxymethyl]-7-(2-pyridylmethyl)-7-azaspiro[3.5]nonane], the remaining activity at 30 µM stood at 8.3% and the pIC50 was 5.56.

Take `Cc1cnn(C)c1-c1ccc(NC2CC3(CCN(CC4CCSCC4)CC3)C2)nn1` [Compound 11, N-[6-(2,4-dimethylpyrazol-3-yl)pyridazin-3-yl]-7-(tetrahydrothiopyran-4-ylmethyl)-7-azaspiro[3.5]nonan-2-amine]: the remaining activity at 30 µM was 3.95% and the pIC50 was 6.68.

As for `Fc1ccc(Cl)c(-c2ccc(OCC3CC4(CCN(CC5CCCCC5)CC4)C3)nn2)c1` [Compound 62, 2-[[6-(2-chloro-5-fluoro-phenyl)pyridazin-3-yl]oxymethyl]-7-(cyclohexylmethyl)-7-azaspiro[3.5]nonane], the remaining activity at 30 µM worked out at 6.14% and the pIC50 was 5.83.

As to `Fc1ccc(Cl)c(-c2ccc(OC3CC4(CCN(CC5CCOCC5)CC4)C3)nn2)c1` [Compound 19, 2-[6-(2-chloro-5-fluoro-phenyl)pyridazin-3-yl]oxy-7-(tetrahydropyran-4-ylmethyl)-7-azaspiro[3.5]nonane], the remaining activity at 30 µM is 3.47% and the pIC50 is 5.94.

In the case of `Fc1ccc(Cl)c(-c2ccc(NCC3CC4(CCN(Cc5ccccn5)CC4)C3)nn2)c1` [Compound 47, 6-(2-chloro-5-fluoro-phenyl)-N-[[7-(2-pyridylmethyl)-7-azaspiro[3.5]nonan-2-yl]methyl]pyridazin-3-amine], the remaining activity at 30 µM stood at 5.52% and the negative-log IC50 (pIC50) was 5.72.

On to `Cc1cnn(C)c1-c1ccc(OC2CC3(CCN(CC4CC5C=CC4C5)CC3)C2)nn1` (stereo not drawn) [Compound 32, 7-(5-bicyclo[2.2.1]hept-2-enylmethyl)-2-[6-(2,4-dimethylpyrazol-3-yl)pyridazin-3-yl]oxy-7-azaspiro[3.5]nonane], for which the remaining activity at 30 µM came to 3.96% and the pIC50 was 6.80.

`Cc1nn(C)cc1-c1ccc(NC2CC3(CCN(CC4CC5C=CC4C5)CC3)C2)nn1` (stereo not drawn) [Compound 3, 7-(5-bicyclo[2.2.1]hept-2-enylmethyl)-N-[6-(1,3-dimethylpyrazol-4-yl)pyridazin-3-yl]-7-azaspiro[3.5]nonan-2-amine]: the remaining activity at 30 µM was found to be 3.12% and the pIC50 was 8.00.

As to `Cc1cccnc1CN1CCC2(CC1)CC(Oc1ccc(-c3cn(C)nc3C)nn1)C2` [Compound 31, 2-[6-(1,3-dimethylpyrazol-4-yl)pyridazin-3-yl]oxy-7-[(3-methyl-2-pyridyl)methyl]-7-azaspiro[3.5]nonane], the remaining activity at 30 µM came to 8.05% and the pIC50 is 5.57.

As to `Cc1cnn(C)c1-c1ccc(OC2CC3(CCN(CC(C)C(C)(C)C)CC3)C2)nn1` (stereo not drawn) [Compound 33, 2-[6-(2,4-dimethylpyrazol-3-yl)pyridazin-3-yl]oxy-7-(2,3,3-trimethylbutyl)-7-azaspiro[3.5]nonane], the remaining activity at 30 µM is 3.87% and the pIC50 was 6.60.

As for `COc1cccc(CN2CCC3(CC2)CC(CNc2ccc(-c4cc(F)ccc4Cl)nn2)C3)n1` [Compound 48, 6-(2-chloro-5-fluoro-phenyl)-N-[[7-[(6-methoxy-2-pyridyl)methyl]-7-azaspiro[3.5]nonan-2-yl]methyl]pyridazin-3-amine], the remaining activity at 30 µM was found to be 4.48% and the pIC50 was 5.76.

As for `Fc1ccc(Cl)c(-c2ccc(NCC3CC4(CCN(CC5CC6C=CC5C6)CC4)C3)nn2)c1` (stereo not drawn) [Compound 40, N-[[7-(5-bicyclo[2.2.1]hept-2-enylmethyl)-7-azaspiro[3.5]nonan-2-yl]methyl]-6-(2-chloro-5-fluoro-phenyl)pyridazin-3-amine], the remaining activity at 30 µM was 2.63% and the pIC50 is 6.62.

With `Cc1cnn(C)c1-c1ccc(OC2CC3(CCN(CCC(C)(C)C)CC3)C2)nn1` [Compound 14, 7-(3,3-Dimethylbutyl)-2-[6-(2,4-dimethylpyrazol-3-yl)pyridazin-3-yl]oxy-7-azaspiro[3.5]nonane], the remaining activity at 30 µM was found to be 3.92% and the pIC50 was 6.62.
